According to publication PMC11649397, “The study of halogen effect on the reactivity of the serine-targeting covalent warheads” (Frontiers in Chemistry, 2024):
Where two headings read alike, the source gives them in different places.

What was measured:
hCES1A [1] = target: T1, hCES1A (Homo sapiens, UniProt P23141); test: Inhibition assay on hCES1A (bioluminogenic substrate NLMe); format: biochemical; conditions: for IC50: mean ± SD, n = 3; for hCES1A IC50 Fold Increase: ratio of IC50 at 3 min to IC50 at 33 min
T1 sequence (P23141 18-567): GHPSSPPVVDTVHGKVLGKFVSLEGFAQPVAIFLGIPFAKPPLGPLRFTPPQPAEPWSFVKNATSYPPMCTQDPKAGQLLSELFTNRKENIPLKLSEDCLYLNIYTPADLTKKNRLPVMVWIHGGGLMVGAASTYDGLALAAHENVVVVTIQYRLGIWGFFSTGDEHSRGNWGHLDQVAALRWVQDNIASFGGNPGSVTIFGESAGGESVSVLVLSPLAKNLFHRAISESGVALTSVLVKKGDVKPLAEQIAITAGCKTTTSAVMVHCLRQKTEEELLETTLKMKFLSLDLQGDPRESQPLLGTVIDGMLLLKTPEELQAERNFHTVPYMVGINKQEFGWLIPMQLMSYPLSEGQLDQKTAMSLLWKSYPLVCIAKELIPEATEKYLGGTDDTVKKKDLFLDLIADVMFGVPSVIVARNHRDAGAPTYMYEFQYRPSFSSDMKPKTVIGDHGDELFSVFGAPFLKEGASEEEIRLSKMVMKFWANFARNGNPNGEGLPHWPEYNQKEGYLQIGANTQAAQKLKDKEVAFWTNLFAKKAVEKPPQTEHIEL
Protocol: In this study, a known bioluminogenic probe substrate NLMe was used for human carboxylesterase 1 (hCES1A) inhibition assays. ([Wang et al., 2020]). In brief, the incubation mixture (0.1 mL) consisted of 0.1 M buffer PBS (PH 6.5), hCES1A (0.1 μg/mL, final concentration) and each test compound. […] After 20 min incubation, equal volume of LDR was added to stop reaction. The luminescence signals were monitored in the microplate reader (SpectraMax iD3Molecular Devices, Austria). […]
(§1) The household library of covalent fragments including D and F was from Organic Chemistry […]
(§2) Fig. S1. Partial fragment molecules of a household library targeting to serine. […]
Inhibition assay on hCES1A
In this study, a known bioluminogenic probe substrate NLMe was used for human carboxylesterase 1 (hCES1A) inhibition assays. 2 In brief, the incubation mixture (0.1 mL) consisted of 0.1 M buffer PBS (PH 6.5), hCES1A (0.1 μg/mL, final concentration) and each test compound. […]
After 20 min incubation, equal volume of LDR was added to stop reaction.

hCES2A = target: T2, hCES2A (Homo sapiens, UniProt O00748); test: Inhibition assay on hCES2A (fluorescent substrate FD); format: biochemical; conditions: mean ± SD, n = 3
T2 sequence (O00748 27-559): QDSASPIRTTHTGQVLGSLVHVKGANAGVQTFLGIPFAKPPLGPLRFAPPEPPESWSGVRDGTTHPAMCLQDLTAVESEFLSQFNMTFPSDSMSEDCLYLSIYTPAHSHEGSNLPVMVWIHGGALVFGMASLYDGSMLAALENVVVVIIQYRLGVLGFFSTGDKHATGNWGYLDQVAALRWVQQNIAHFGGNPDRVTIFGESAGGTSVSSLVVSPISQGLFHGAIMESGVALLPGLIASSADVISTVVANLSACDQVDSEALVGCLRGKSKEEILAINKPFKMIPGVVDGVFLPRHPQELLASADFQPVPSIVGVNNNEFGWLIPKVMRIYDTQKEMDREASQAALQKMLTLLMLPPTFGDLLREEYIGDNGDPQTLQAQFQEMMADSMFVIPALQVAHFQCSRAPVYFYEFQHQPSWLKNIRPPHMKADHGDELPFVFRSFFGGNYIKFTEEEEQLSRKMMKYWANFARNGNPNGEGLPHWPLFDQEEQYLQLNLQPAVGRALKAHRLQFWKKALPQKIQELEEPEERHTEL
Protocol: 1. Detailed experimental, materials, and methods
as §1, §2
Inhibition assay on hCES2A
Human carboxylesterase 2 (hCES2A) inhibition assays were conducted using FD, a known fluorescent substrate. 3 Briefly, hCES2A (0.4 μg/mL, final concentration) was preincubated with analytes/DMSO (as a control group) in PBS (pH 7.4) at 37 °C for 3 min. This was followed by adding the substrate FD (4 μM, final concentration) in the incubation mixture and allowing it to react for 30 min. The fluorescent signals (excitation/emission, 480 nm/525 nm) were continuously recorded by a microplate reader (SpectraMax iD3Molecular Devices, Austria). […]

hCES1A [2] = target: T1, hCES1A; test: Co-crystallography with hCES1A; format: binding; conditions: 1:5 molar ratio
Protocol: Purified hCES1A incubated with F-3 and F-4 at 1:5 M ratio for 1 h at 18°C. Crystallisation screening was performed using commercially available kit sets using sitting drop vapor diffusion at 16°C. Both diffraction-quality crystals were obtained from the condition containing 14.4% peg8000 (w/v), 0.1M MES 6.4, 0.3M CaAc and 20% glycerol. Crystals were flash cooled in liquid nitrogen after cryoprotection in 25% glycerin. Date was collected on 02U1 at Shanghai Synchrotron Radiation Facility (SSRF). Data images were processed using program HKL2000. ([Otwinowski and Minor, 1997]). Crystal structures were solved using molecular replacement with the Phenix software suite using unbound hces1a (Protein Data Bank [PDB] accession number 1MX1 as the search model. Structure refinement was performed using Phenix. ([Adams et al., 2010]). The program COOT was used for manual rebuilding. ([Emsley and Cowtan, 2004]). Molecular graphics images were generated using CCP4MG. ([McNicholas et al., 2011]). […]
fluorogenic probe. 4 Briefly, the incubation mixtures (0.1 mL) contained Tris-HCl buffer, hPL solution (0.25 μg/mL, final concentration), porcine bile salt (0.1 mg/mL, final concentration) and each inhibitor (with different concentrations). […] The fluorescent signals of hydrolytic product were quantified by using the microplate reader (Spectra Max M4, Austria), with the wavelength of 600 nm and 660 nm for excitation and emission, respectively. […]
OPTS, a known fluorogenic probe, was used as the substrate to assess the residual activities of Notum in the presence of each tested compound. […] After preincubated at 37 °C for 1 min, OPTS was added to initiate the hydrolytic reaction and the multi-mode microplate reader (SpectraMax iD3, Molecular Devices, Austria) was used to analyze the florescence signals of the […]
The F-3, F-4, F-10-bound peptides was analysed using the nanoLC-MS/MS system, respectively.6 The purified hCES1A (150 μg, final content) was co-incubated with the small molecule inhibitor F-3/ F-4/ F-10 (100 μM, final concentration) at 4 °C and 25 °C, respectively, for 4h. […]

[3] = 3 min incubation, read-out: hCES1A IC50 3 min
[4] = 33 min incubation, read-out: hCES1A IC50 33 min
[5] = 3 min incubation, read-out: hCES2A IC50 3 min
[6] = 33 min incubation, read-out: hCES2A IC50 33 min

Compound | IC50 (hCES1A [1]; [3]) [nM] | IC50 (hCES1A [1]; [4]) [nM] | hCES1A IC50 Fold Increase (hCES1A [1]) | IC50 (hCES2A; [5]) [nM] | IC50 (hCES2A; [6]) [nM] | covalent binding mode at the catalytic triad (Ser221) in co-crystal (hCES1A [2])
O=C(c1ccc(Cl)cc1)C(F)F [Compound F1-1] | 58 ± 6 | 102 ± 37.4 | 0.6 | – | – | –
O=C(CF)c1ccc(Cl)cc1 [Compound F1-2] | 1210 | 874 ± 92.2 | 1.4 | – | – | –
O=C(c1ccc(Cl)cc1)C(F)(F)F [Compound F-1] | 14.4 ± 1.9 | 1.9 ± 0.2 | 7.6 | 59.1 ± 9.8 | 71.3 ± 19.4 | –
O=C(c1cccc(Cl)c1)C(F)(F)F [Compound F-2] | 34.1 ± 5.3 | 2.5 ± 0.4 | 13.6 | 76.8 ± 10.9 | 90 ± 21 | –
O=C(c1ccccc1Cl)C(F)(F)F [Compound F-3] | 11.6 ± 0.7 | 2.3 ± 0.4 | 5.0 | 102 ± 20.6 | 85.6 ± 36 | promising covalent binding modes
O=C(c1ccc(Cl)c(Cl)c1)C(F)(F)F [Compound F-4] | 10 ± 1.4 | 2.4 ± 0.4 | 4.2 | – | – | forming an expected hemiacetal covalent bond
O=C(c1cccc(Br)c1)C(F)(F)F [Compound F-5] | 17 ± 3 | 1.7 ± 0.5 | 10.0 | – | – | –
O=C(c1ccccc1Br)C(F)(F)F [Compound F-6] | 9.9 ± 1.01 | 52.8 ± 15.9 | 0.2 | – | – | –
O=C(c1ccc(Br)cc1)C(F)(F)F [Compound F-7] | 16.1 ± 2.3 | 2.1 ± 0.6 | 7.7 | – | – | –
O=C(c1ccc(F)cc1)C(F)(F)F [Compound F-8] | 1700 | 603 ± 107 | 2.8 | – | – | –
O=C(c1ccc(I)cc1)C(F)(F)F [Compound F-9] | 37.7 ± 8.6 | 6.2 ± 1.1 | 6.1 | – | – | –
O=C(c1cc(Cl)c(Cl)c(Cl)c1)C(F)(F)F [Compound F-10] | 30 ± 4.5 | 2.8 ± 0.4 | 10.7 | – | – | –
O=C(c1ccc(C(F)(F)F)cc1)C(F)(F)F [Compound F-11] | > 2000 | > 2000 | – | – | – | –
Nc1ccc(C(=O)C(F)(F)F)cc1 [Compound F-12] | 470 ± 120 | 670 ± 130 | – | – | – | –
COc1ccc(C(=O)C(F)(F)F)cc1 [Compound F-14] | 30.2 ± 12.1 | 29.7 ± 20.7 | – | – | – | –
CCc1ccc(C(=O)C(F)(F)F)cc1 [Compound F-15] | 18.7 ± 4.2 | 23.8 ± 12.4 | – | – | – | –
